According to patent US8895561B2, “Compounds and methods for treating candidiasis and aspergillus infections” (Cellceutix Corporation, priority 2012, dated 2014):
Values after ≈ are worked out from the molar mass of the structure shown. Where two headings read alike, the source gives them in different places.

Assays:
C. albicans GDH2346 = experiment: Candida IC50, vegetative cells, by OD600 and fluorescence; assay type: cell-based; details: Candida albicans, GDH2346; vegetative cells; read-out: CA (Candida IC50)
Description: (§1) Candida IC50s were determined by OD600 and fluorescence from vegetative cells and by MTS viability assay in the hyphal state. MICs were determined using a broth microdilution assay under standard CLSI conditions Bacteria strains: E. coli 25922 (EC), S. aureus 27660 (SA), E. faecalis 29212 (EF), P. aeruginosa 10145 (PA), and K. pneumoniae 13883 (KP). Cytotoxicity (EC50) was determined against mouse 3T3 fibroblasts, human transformed liver HepG2 cells, and human oral keratinocyte cell line, OKF6/TERT using an MTS viability assay. Candida IC50s<10 μg/mL, MICs<5 μg/mL and cytotoxicity EC50s>100 μM are indicated in green. MICs>5 μg/mL and cytotoxicity EC50s<100 μM are indicated in red. Candida IC50s (CA) were determined by OD600 and fluorescence from vegetative cells. MICs were determined using a broth microdilution assay under standard CLSI conditions Bacteria strains: E. coli 25922 (EC), S. aureus 27660 (SA), E. faecalis 29212 (EF), P. aeruginosa 10145 (PA), and K. pneumoniae 13883 (KP). Cytotoxicity (EC50) was determined against mouse 3T3 fibroblasts and human transformed liver HepG2 cells using an MTS viability assay. For determination of anti-Candida IC50s, the method was modified by using RPMI/MOPS buffer pH 6.3 and by addition of FDGlu, a substrate for the yeast enzyme exoglucanase which is secreted during cell growth. This provides a fluorescent readout for cell growth which was used in addition to the traditional optical density measure of growth. OD600 and fluorescence were determined at 24 and 48 hours and the average of all 4 reads was used for the final IC50 determination.

E. coli 25922 = experiment: Bacterial MIC, broth microdilution, CLSI; assay type: cell-based; details: Escherichia coli, 25922; read-out: EC (MIC)
Description: as §1, with “assay.” for “assay. For determination of anti-Candida IC50s, the method was modified by using RPMI/MOPS buffer pH 6.3 and by addition of FDGlu, a substrate for the yeast enzyme exoglucanase which is secreted during cell growth. This provides a fluorescent readout for cell growth which was used in addition to the traditional optical density measure of growth. OD600 and fluorescence were determined at 24 and 48 hours and the average of all 4 reads was used for the final IC50 determination.”

E. faecalis 29212 = experiment: Bacterial MIC, broth microdilution, CLSI; assay type: cell-based; details: Enterococcus faecalis, 29212; read-out: EF (MIC)
Description: as §1, with “assay.” for “assay. For determination of anti-Candida IC50s, the method was modified by using RPMI/MOPS buffer pH 6.3 and by addition of FDGlu, a substrate for the yeast enzyme exoglucanase which is secreted during cell growth. This provides a fluorescent readout for cell growth which was used in addition to the traditional optical density measure of growth. OD600 and fluorescence were determined at 24 and 48 hours and the average of all 4 reads was used for the final IC50 determination.”

P. aeruginosa 10145 = experiment: Bacterial MIC, broth microdilution, CLSI; assay type: cell-based; details: Pseudomonas aeruginosa, 10145; read-out: PA (MIC)
Description: as §1, with “assay.” for “assay. For determination of anti-Candida IC50s, the method was modified by using RPMI/MOPS buffer pH 6.3 and by addition of FDGlu, a substrate for the yeast enzyme exoglucanase which is secreted during cell growth. This provides a fluorescent readout for cell growth which was used in addition to the traditional optical density measure of growth. OD600 and fluorescence were determined at 24 and 48 hours and the average of all 4 reads was used for the final IC50 determination.”

S. aureus 27660 = experiment: Bacterial MIC, broth microdilution, CLSI; assay type: cell-based; details: Staphylococcus aureus, 27660; read-out: SA (MIC)
Description: as §1, with “assay.” for “assay. For determination of anti-Candida IC50s, the method was modified by using RPMI/MOPS buffer pH 6.3 and by addition of FDGlu, a substrate for the yeast enzyme exoglucanase which is secreted during cell growth. This provides a fluorescent readout for cell growth which was used in addition to the traditional optical density measure of growth. OD600 and fluorescence were determined at 24 and 48 hours and the average of all 4 reads was used for the final IC50 determination.”

[1] = Cytotoxicity, MTS viability assay; assay type: cell-based, human
Description: Candida IC50s were determined by OD600 and fluorescence from vegetative cells and by MTS viability assay in the hyphal state. MICs were determined using a broth microdilution assay under standard CLSI conditions Bacteria strains: E. coli 25922 (EC), S. aureus 27660 (SA), E. faecalis 29212 (EF), P. aeruginosa 10145 (PA), and K. pneumoniae 13883 (KP). Cytotoxicity (EC50) was determined against mouse 3T3 fibroblasts, human transformed liver HepG2 cells, and human oral keratinocyte cell line, OKF6/TERT using an MTS viability assay. Candida IC50s<10 μg/mL, MICs<5 μg/mL and cytotoxicity EC50s>100 μM are indicated in green. MICs>5 μg/mL and cytotoxicity EC50s<100 μM are indicated in red.
Candida IC50s (CA) were determined by OD600 and fluorescence from vegetative cells. MICs were determined using a broth microdilution assay under standard CLSI conditions Bacteria strains: E. coli 25922 (EC), S. aureus 27660 (SA), E. faecalis 29212 (EF), P. aeruginosa 10145 (PA), and K. pneumoniae 13883 (KP). Cytotoxicity (EC50) was determined against mouse 3T3 fibroblasts and human transformed liver HepG2 cells using an MTS viability assay.
CLSI conditions Bacteria strains: clinical isolates; yeast strains: C. dubliniensis (NCPF3949), C. glabrata (ATCC 90030), C. krusei (ATCC 6258), C. parapsilosis (ATCC 22019), and C. tropicalis (ATCC 750). Cytotoxicity (EC50) was determined against mouse 3T3 fibroblasts, human transformed liver HepG2 cells, and human oral keratinocyte cell line, OKF6/TERT using an MTS viability assay.

[2] = human, HepG2 cells (transformed liver), read-out: HepG2 (cytotoxicity EC50)
[3] = mouse, 3T3 fibroblasts, read-out: 3T3 (cytotoxicity EC50)

IC50 (C. albicans GDH2346) [µg/mL]	MIC (E. coli 25922) [µg/mL]	MIC (E. faecalis 29212) [µg/mL]	MIC (P. aeruginosa 10145) [µg/mL]	MIC (S. aureus 27660) [µg/mL]	Compound	EC50 [1, 2] [µM]	EC50 [1, 3] [µM]
3.1 (≈ 8.21 µM)	–	–	–	–	NCc1cccc(-c2ccc3[nH]c4ccc(-c5cccc(CN)c5)cc4c3c2)c1 [Compound 117]	–	–
> 100	–	–	–	–	NCCCn1c2ccccc2c2ccccc21 [Compound 139]	–	–
3.58 (≈ 7.51 µM)	0.78 (≈ 1.64 µM)	3.13 (≈ 6.57 µM)	3.13 (≈ 6.57 µM)	0.195 (≈ 0.409 µM)	NCCCc1cccc(-c2ccc3c4ccc(-c5cccc(CCCN)c5)cc4n(CCN)c3c2)c1 [Compound 140]	99	159
–	12.5 (≈ 32.7 µM)	–	100 (≈ 262 µM)	12.5 (≈ 32.7 µM)	NCCCn1c2cc(Br)ccc2c2ccc(Br)cc21 [Compound 141]	62	107
1.65 (≈ 2.56 µM)	3.13 (≈ 4.85 µM)	6.25 (≈ 9.69 µM)	25 (≈ 38.8 µM)	1.56 (≈ 2.42 µM)	N=C(N)NCCCCCc1cccc(-c2ccc3c4ccc(-c5cccc(CCCNC(=N)N)c5)cc4n(CCCNC(=N)N)c3c2)c1 [Compound 142]	100	131
6.48 (≈ 9.69 µM)	3.13 (≈ 4.68 µM)	1.56 (≈ 2.33 µM)	50 (≈ 74.8 µM)	0.39 (≈ 0.583 µM)	NCCCOc1cc(OCCCN)cc(-c2ccc3c4ccc(-c5cc(OCCCN)cc(OCCCN)c5)cc4n(CCCN)c3c2)c1 [Compound 143]	140	222
3.95 (≈ 8.54 µM)	3.13 (≈ 6.77 µM)	0.195 (≈ 0.421 µM)	3.13 (≈ 6.77 µM)	0.098 (≈ 0.212 µM)	NCCCn1c2cc(-c3cccc(CCN)c3)ccc2c2ccc(-c3cccc(CCN)c3)cc21 [Compound 144]	188	80
23.9 (≈ 53.6 µM)	> 50	3.13 (≈ 7.01 µM)	50 (≈ 112 µM)	25 (≈ 56 µM)	NCCCOc1cc(OCCCN)cc(-c2ccc3c(c2)c2ccccc2n3CCCN)c1 [Compound 145]	790	> 1000
44.6 (≈ 84.9 µM)	50 (≈ 95.1 µM)	0.39 (≈ 0.742 µM)	12.5 (≈ 23.8 µM)	0.39 (≈ 0.742 µM)	NCCCOc1cc(OCCCN)cc(-c2ccc3c4ccc(Br)cc4n(CCCN)c3c2)c1 [Compound 146]	341	307
–	1.56 (≈ 2.44 µM)	0.39 (≈ 0.61 µM)	6.25 (≈ 9.77 µM)	0.098 (≈ 0.153 µM)	CCn1c2ccc(-c3cc(OCCCN)cc(OCCCN)c3)cc2c2cc(-c3cc(OCCCN)cc(OCCCN)c3)ccc21 [Compound 147]	–	–
8.74 (≈ 12.6 µM)	25 (≈ 36.1 µM)	> 50	> 50	3.13 (≈ 4.52 µM)	CCn1c2ccc(-c3cc(C(=O)NCCN)cc(C(=O)NCCN)c3)cc2c2cc(-c3cc(C(=O)NCCN)cc(C(=O)NCCN)c3)ccc21 [Compound 148]	312	450
> 100	3.13 (≈ 7.66 µM)	1.56 (≈ 3.82 µM)	> 100	0.049 (≈ 0.12 µM)	NCCCn1c2cc(-c3cccc(O)c3)ccc2c2ccc(-c3cccc(O)c3)cc21 [Compound 149]	20	29
3.34 (≈ 6.39 µM)	0.78 (≈ 1.49 µM)	1.56 (≈ 2.98 µM)	3.13 (≈ 5.99 µM)	0.049 (≈ 0.0937 µM)	NCCCOc1cccc(-c2ccc3c4ccc(-c5cccc(OCCCN)c5)cc4n(CCCN)c3c2)c1 [Compound 150]	58	54
3.85 (≈ 7.78 µM)	3.13 (≈ 6.33 µM)	6.25 (≈ 12.6 µM)	6.25 (≈ 12.6 µM)	0.195 (≈ 0.394 µM)	NCCCn1c2cc(-c3cccc(OCCN)c3)ccc2c2ccc(-c3cccc(OCCN)c3)cc21 [Compound 151]	78	56
3.77 (≈ 7.21 µM)	1.56 (≈ 2.98 µM)	1.56 (≈ 2.98 µM)	3.13 (≈ 5.99 µM)	0.39 (≈ 0.746 µM)	NCCCOc1ccc(-c2ccc3c4ccc(-c5ccc(OCCCN)cc5)cc4n(CCCN)c3c2)cc1 [Compound 152]	12	34
–	12.5 (≈ 30.7 µM)	12.5 (≈ 30.7 µM)	100 (≈ 246 µM)	1.56 (≈ 3.84 µM)	NCCCn1c2cc(-c3cccc(N)c3)ccc2c2ccc(-c3cccc(N)c3)cc21 [Compound 153]	65	46
2.63 (≈ 4.78 µM)	12.5 (≈ 22.7 µM)	> 50	12.5 (≈ 22.7 µM)	0.39 (≈ 0.709 µM)	CCn1c2ccc(-c3cccc(N(CCN)CCN)c3)cc2c2cc(-c3cccc(N(CCN)CCN)c3)ccc21 [Compound 155]	–	–
1.94 (≈ 3.72 µM)	1.56 (≈ 2.99 µM)	> 50	12.5 (≈ 24 µM)	1.56 (≈ 2.99 µM)	NCCN(CCN)c1cccc(-c2ccc3[nH]c4ccc(-c5cccc(N(CCN)CCN)c5)cc4c3c2)c1 [Compound 156]	> 1000	487
17.5 (≈ 31.8 µM)	1.56 (≈ 2.84 µM)	> 50	25 (≈ 45.5 µM)	1.56 (≈ 2.84 µM)	NCCN(CCN)Cc1cccc(-c2ccc3[nH]c4ccc(-c5cccc(CN(CCN)CCN)c5)cc4c3c2)c1 [Compound 158]	615	179
1.48 (≈ 1.95 µM)	1.56 (≈ 2.06 µM)	3.13 (≈ 4.12 µM)	6.25 (≈ 8.23 µM)	1.95 (≈ 2.57 µM)	N=C(N)NCCCn1c2cc(-c3ccc(CCNC(=N)N)c(CCNC(=N)N)c3)ccc2c2ccc(-c3ccc(CCNC(=N)N)c(CCNC(=N)N)c3)cc21 [Compound 160]	28	28
11.8 (≈ 21.5 µM)	1.56 (≈ 2.84 µM)	> 50	50 (≈ 91.1 µM)	6.25 (≈ 11.4 µM)	NCCCn1c2cc(-c3cc(CCN)cc(CCN)c3)ccc2c2ccc(-c3cc(CCN)cc(CCN)c3)cc21 [Compound 161]	466	356
3.12 (≈ 4.11 µM)	1.56 (≈ 2.06 µM)	12.5 (≈ 16.5 µM)	3.13 (≈ 4.12 µM)	0.39 (≈ 0.514 µM)	N=C(N)NCCCn1c2cc(-c3cc(CCNC(=N)N)cc(CCNC(=N)N)c3)ccc2c2ccc(-c3cc(CCNC(=N)N)cc(CCNC(=N)N)c3)cc21 [Compound 162]	273	49
1.79 (≈ 2.04 µM)	3.13 (≈ 3.56 µM)	3.13 (≈ 3.56 µM)	50 (≈ 56.9 µM)	3.13 (≈ 3.56 µM)	N=C(N)NCCCOc1cc(OCCCNC(=N)N)cc(-c2ccc3c(c2)c2cc(-c4cc(OCCCNC(=N)N)cc(OCCCNC(=N)N)c4)ccc2n3CCCNC(=N)N)c1 [Compound 163]	113	31
